Test results from PMC7187165, “Structure‐Based Design, Synthesis, and Biological Evaluation of Triazole‐Based smHDAC8 Inhibitors” (Chemmedchem, 2020).
Several values for one entry are separate records, joined by “and”; a condition that tells them apart may be missing. Identical values can stand only once.

Target: T1, smHDAC8 (Schistosoma mansoni, UniProt A5H660)
T1 construct: made in house; host or cells: E. coli
T1 sequence (A5H660 1-440): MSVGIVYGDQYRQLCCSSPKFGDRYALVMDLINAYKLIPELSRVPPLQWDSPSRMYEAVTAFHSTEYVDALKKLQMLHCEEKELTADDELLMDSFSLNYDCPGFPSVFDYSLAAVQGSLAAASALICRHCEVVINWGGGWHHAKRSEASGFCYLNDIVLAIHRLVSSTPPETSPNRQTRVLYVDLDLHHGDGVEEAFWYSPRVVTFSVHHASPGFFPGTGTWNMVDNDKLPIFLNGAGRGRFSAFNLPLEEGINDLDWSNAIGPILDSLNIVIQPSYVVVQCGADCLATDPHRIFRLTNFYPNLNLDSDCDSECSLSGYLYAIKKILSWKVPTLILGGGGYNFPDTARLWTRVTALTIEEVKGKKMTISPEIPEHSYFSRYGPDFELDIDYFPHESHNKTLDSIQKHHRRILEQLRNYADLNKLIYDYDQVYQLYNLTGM
Assay: biochemical
Type: biochemical
Conditions: not given

Structure (SMILES) | IC50 [µM]
O=C(NO)c1cn(-c2ccccc2)nn1 [Compound 2 b, N ‐Hydroxy‐1‐phenyl‐1H‐1,2,3‐triazole‐4‐carboxamide] | 4.44 ± 1.52
O=C(NO)c1cn(Cc2ccc(C(F)(F)F)cc2)nn1 [Compound 2 e] | 5.12 ± 0.64
O=C(NO)c1cn(CCc2ccccc2)nn1 [Compound 2 f] | 10.7 ± 1.88
O=C(NO)c1cn(CCCc2ccccc2)nn1 [Compound 2 g] | 8.81 ± 1.89

Same assay, conditions: 5 μM; pretest; read-out: smHDAC8 % inhibition @ 5 μM (Fluor de Lys)

Structure (SMILES) | inhibition at 5 µM [%]
O=C(NO)c1cn(-c2ccccc2O)nn1 [Compound 12] | 19.5
O=C(NO)c1cn(-c2cc(Cl)ccc2O)nn1 [Compound 13, 1‐(5‐Chloro‐2‐hydroxyphenyl)‐N‐hydroxy‐1H‐1,2,3‐triazole‐4‐carboxamide] | 14.5
Cc1ccc(Oc2ccc(Cl)cc2-n2cc(C(=O)NO)nn2)cc1 [Compound 20] | 49.8
O=C(NO)c1cn(-c2cc(Cl)ccc2Oc2ccc(F)cc2)nn1 [Compound 21, 1‐[5‐Chloro‐2‐(4‐fluorophenoxy)phenyl]‐N‐hydroxy‐1H‐1,2,3‐triazole‐4‐carboxamide] | 66.2

Same assay, conditions: 50 μM; pretest; read-out: smHDAC8 % inhibition @ 50 μM (Fluor de Lys)

Structure (SMILES) | inhibition at 50 µM [%]
O=C(NO)c1cn(-c2ccccc2O)nn1 [Compound 12] | 63.5
O=C(NO)c1cn(-c2cc(Cl)ccc2O)nn1 [Compound 13, 1‐(5‐Chloro‐2‐hydroxyphenyl)‐N‐hydroxy‐1H‐1,2,3‐triazole‐4‐carboxamide] | 67.3
Cc1ccc(Oc2ccc(Cl)cc2-n2cc(C(=O)NO)nn2)cc1 [Compound 20] | 91.1
O=C(NO)c1cn(-c2cc(Cl)ccc2Oc2ccc(F)cc2)nn1 [Compound 21, 1‐[5‐Chloro‐2‐(4‐fluorophenoxy)phenyl]‐N‐hydroxy‐1H‐1,2,3‐triazole‐4‐carboxamide] | 93.4

Same assay, conditions: @ 10 μM; pretest n=1; read-out: smHDAC8 (% inhibition, Fluor de Lys)

Structure (SMILES) | inhibition at 10 µM [%]
O=C(NO)c1cn(-c2ccccc2)nn1 [Compound 2 b, N ‐Hydroxy‐1‐phenyl‐1H‐1,2,3‐triazole‐4‐carboxamide] | 57.9
O=C(NO)c1cn(Cc2ccc(C(F)(F)F)cc2)nn1 [Compound 2 e] | 52.5
O=C(NO)c1cn(CCc2ccccc2)nn1 [Compound 2 f] | 49.5
O=C(NO)c1cn(CCCc2ccccc2)nn1 [Compound 2 g] | 50.5

Same assay, conditions: n=2; mean ± S.E.M.; read-out: smHDAC8 IC50 (Fluor de Lys)

Structure (SMILES) | IC50
O=C(NO)c1cn(-c2cc(Cl)ccc2Oc2ccc(F)cc2)nn1 [Compound 21, 1‐[5‐Chloro‐2‐(4‐fluorophenoxy)phenyl]‐N‐hydroxy‐1H‐1,2,3‐triazole‐4‐carboxamide] | 0.5 µM and 0.504 µM

Target: T2, hsHDAC8 (Homo sapiens, UniProt Q9BY41)
T2 construct: made in house
T2 sequence (Q9BY41 1-377): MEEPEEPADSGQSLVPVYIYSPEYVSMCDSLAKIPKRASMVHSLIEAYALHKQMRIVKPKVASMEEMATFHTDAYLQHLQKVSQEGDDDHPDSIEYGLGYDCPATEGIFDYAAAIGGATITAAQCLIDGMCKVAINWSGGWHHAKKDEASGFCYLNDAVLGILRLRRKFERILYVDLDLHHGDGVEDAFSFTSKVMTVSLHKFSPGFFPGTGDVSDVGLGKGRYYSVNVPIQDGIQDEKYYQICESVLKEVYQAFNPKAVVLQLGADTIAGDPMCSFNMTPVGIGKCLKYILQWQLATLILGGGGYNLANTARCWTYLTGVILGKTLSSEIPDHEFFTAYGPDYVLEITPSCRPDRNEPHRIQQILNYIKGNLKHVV
Assay: In vitro hsHDAC8 inhibition, homogeneous fluorescence assay (Fluor de Lys substrate)
Type: biochemical
Conditions: n=2; mean ± S.E.M.

Structure (SMILES) | IC50 [µM]
O=C(NO)c1cn(-c2ccccc2)nn1 [Compound 2 b, N ‐Hydroxy‐1‐phenyl‐1H‐1,2,3‐triazole‐4‐carboxamide] | 12.4 ± 1.08
O=C(NO)c1cn(Cc2ccc(C(F)(F)F)cc2)nn1 [Compound 2 e] | 3.47 ± 0.53
O=C(NO)c1cn(CCc2ccccc2)nn1 [Compound 2 f] | 5.54 ± 0.64
O=C(NO)c1cn(CCCc2ccccc2)nn1 [Compound 2 g] | 5.37 ± 0.68
O=C(NO)c1cn(-c2cc(Cl)ccc2Oc2ccc(F)cc2)nn1 [Compound 21, 1‐[5‐Chloro‐2‐(4‐fluorophenoxy)phenyl]‐N‐hydroxy‐1H‐1,2,3‐triazole‐4‐carboxamide] | 2.2 ± 0.68

Target: T3, hsHDAC6 (Homo sapiens, UniProt Q9UBN7)
T3 sequence (Q9UBN7 1-1215): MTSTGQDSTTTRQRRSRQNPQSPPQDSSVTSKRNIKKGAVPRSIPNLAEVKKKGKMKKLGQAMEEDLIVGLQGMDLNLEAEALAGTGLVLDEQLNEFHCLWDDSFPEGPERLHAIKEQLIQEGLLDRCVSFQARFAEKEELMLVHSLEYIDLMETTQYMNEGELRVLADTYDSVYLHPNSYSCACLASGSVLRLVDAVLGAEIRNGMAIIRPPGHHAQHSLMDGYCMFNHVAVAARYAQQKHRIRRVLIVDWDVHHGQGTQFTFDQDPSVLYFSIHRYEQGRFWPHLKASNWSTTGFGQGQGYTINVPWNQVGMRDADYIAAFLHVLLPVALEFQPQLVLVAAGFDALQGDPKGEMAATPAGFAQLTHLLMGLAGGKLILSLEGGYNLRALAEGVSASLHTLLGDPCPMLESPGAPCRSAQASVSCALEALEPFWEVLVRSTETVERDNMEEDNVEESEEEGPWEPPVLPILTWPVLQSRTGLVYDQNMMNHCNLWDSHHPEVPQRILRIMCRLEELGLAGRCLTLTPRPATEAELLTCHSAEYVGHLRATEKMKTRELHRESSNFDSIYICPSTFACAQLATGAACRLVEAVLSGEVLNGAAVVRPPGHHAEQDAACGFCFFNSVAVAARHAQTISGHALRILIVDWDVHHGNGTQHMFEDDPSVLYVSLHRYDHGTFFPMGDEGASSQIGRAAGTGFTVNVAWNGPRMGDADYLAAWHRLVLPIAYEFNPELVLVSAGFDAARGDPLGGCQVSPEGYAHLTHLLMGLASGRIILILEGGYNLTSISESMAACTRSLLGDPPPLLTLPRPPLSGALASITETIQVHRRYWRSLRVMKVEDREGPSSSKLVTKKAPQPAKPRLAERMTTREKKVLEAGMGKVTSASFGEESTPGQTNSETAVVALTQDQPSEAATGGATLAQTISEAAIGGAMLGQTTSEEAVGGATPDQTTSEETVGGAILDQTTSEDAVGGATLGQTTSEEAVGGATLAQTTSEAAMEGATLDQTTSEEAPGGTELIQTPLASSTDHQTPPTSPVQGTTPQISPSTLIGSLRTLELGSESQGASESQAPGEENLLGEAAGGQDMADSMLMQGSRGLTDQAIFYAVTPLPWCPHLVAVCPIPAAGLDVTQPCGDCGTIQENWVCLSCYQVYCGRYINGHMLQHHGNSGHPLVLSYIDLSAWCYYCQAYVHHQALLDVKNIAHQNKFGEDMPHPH
Assay: In vitro hsHDAC6 inhibition (ZMAL substrate, trypsin developer)
Type: biochemical
Conditions: @ 5 μM

Structure (SMILES) | inhibition at 5 µM [%]
O=C(NO)c1cn(-c2cc(Cl)ccc2Oc2ccc(F)cc2)nn1 [Compound 21, 1‐[5‐Chloro‐2‐(4‐fluorophenoxy)phenyl]‐N‐hydroxy‐1H‐1,2,3‐triazole‐4‐carboxamide] | -1.5

Same assay, conditions: @ 10 μM

Structure (SMILES) | inhibition at 10 µM [%]
O=C(NO)c1cn(Cc2ccc(C(F)(F)F)cc2)nn1 [Compound 2 e] | 2.2 ± 0.5
O=C(NO)c1cn(CCc2ccccc2)nn1 [Compound 2 f] | 12.6 ± 9.6

Same assay, conditions: @ 50 μM

Structure (SMILES) | inhibition at 50 µM [%]
O=C(NO)c1cn(-c2cc(Cl)ccc2Oc2ccc(F)cc2)nn1 [Compound 21, 1‐[5‐Chloro‐2‐(4‐fluorophenoxy)phenyl]‐N‐hydroxy‐1H‐1,2,3‐triazole‐4‐carboxamide] | 34.5

Same assay, conditions: n=2; mean ± S.E.M.

Structure (SMILES) | IC50 [µM]
O=C(NO)c1cn(-c2ccccc2)nn1 [Compound 2 b, N ‐Hydroxy‐1‐phenyl‐1H‐1,2,3‐triazole‐4‐carboxamide] | 42.5 ± 3.64
O=C(NO)c1cn(CCCc2ccccc2)nn1 [Compound 2 g] | 31.8 ± 6.18

Target: T4, hsHDAC1 (Homo sapiens, UniProt Q13547)
T4 sequence (Q13547 whole entry): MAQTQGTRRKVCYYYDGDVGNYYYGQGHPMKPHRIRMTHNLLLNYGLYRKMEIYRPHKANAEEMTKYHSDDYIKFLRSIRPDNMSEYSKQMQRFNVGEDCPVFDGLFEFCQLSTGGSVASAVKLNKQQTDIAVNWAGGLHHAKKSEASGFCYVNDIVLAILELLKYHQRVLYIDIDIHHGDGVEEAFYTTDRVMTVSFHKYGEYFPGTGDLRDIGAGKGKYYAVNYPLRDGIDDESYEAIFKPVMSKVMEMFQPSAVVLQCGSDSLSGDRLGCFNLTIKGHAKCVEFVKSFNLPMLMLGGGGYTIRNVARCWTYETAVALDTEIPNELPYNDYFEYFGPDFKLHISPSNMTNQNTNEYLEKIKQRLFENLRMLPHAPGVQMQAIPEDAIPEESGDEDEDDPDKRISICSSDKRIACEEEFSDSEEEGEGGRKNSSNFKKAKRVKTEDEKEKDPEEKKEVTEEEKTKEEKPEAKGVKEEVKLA
Assay: In vitro hsHDAC1 inhibition (ZMAL substrate, trypsin developer)
Type: biochemical
Conditions: @ 5 μM

Structure (SMILES) | inhibition at 5 µM [%]
O=C(NO)c1cn(-c2cc(Cl)ccc2Oc2ccc(F)cc2)nn1 [Compound 21, 1‐[5‐Chloro‐2‐(4‐fluorophenoxy)phenyl]‐N‐hydroxy‐1H‐1,2,3‐triazole‐4‐carboxamide] | 11

Same assay, conditions: @ 10 μM; read-out: hsHDAC1 (% inhibition, ZMAL)

Structure (SMILES) | inhibition at 10 µM [%]
O=C(NO)c1cn(-c2ccccc2)nn1 [Compound 2 b, N ‐Hydroxy‐1‐phenyl‐1H‐1,2,3‐triazole‐4‐carboxamide] | 8.1 ± 1
O=C(NO)c1cn(Cc2ccc(C(F)(F)F)cc2)nn1 [Compound 2 e] | 3.3 ± 2.5
O=C(NO)c1cn(CCc2ccccc2)nn1 [Compound 2 f] | 1.7 ± 3.4
O=C(NO)c1cn(CCCc2ccccc2)nn1 [Compound 2 g] | 5.4 ± 7

Same assay, conditions: @ 50 μM

Structure (SMILES) | inhibition at 50 µM [%]
O=C(NO)c1cn(-c2cc(Cl)ccc2Oc2ccc(F)cc2)nn1 [Compound 21, 1‐[5‐Chloro‐2‐(4‐fluorophenoxy)phenyl]‐N‐hydroxy‐1H‐1,2,3‐triazole‐4‐carboxamide] | 38.2

Tested on: S. mansoni larvae (schistosomula)
Assay: Schistosome viability testing, resazurin-based fluorescence assay
Type: cell-based, Schistosoma mansoni
Conditions: Schistosoma mansoni, 72 h, read-out: % viability of S. mansoni schistosomula
Procedure: Selected compounds (Table 4) were tested for their effects on the viability of S. mansoni larvae (schistosomula) using a resazurin‐based fluorescence assay that measures mitochondrial activity. Assays were carried out in triplicate on two separate batches of schistosomula and the results are expressed as the percentage of the value obtained with the solvent (DMSO). Initial testing was done at 10 μM as part of a high‐throughput screening procedure and compounds provoking at least a 25 % reduction in viability were tested at 20 μM to determine a dose‐response. […] However, the level of reduction obtained was mediocre and this compound was not considered for further testing. […] A variety of schistosome viability assays are currently used in the field [e. g. […] However, since we have compared compounds that a priori have the same biological target, it is unlikely that they will have different effects on the parasite and that a different viability assay, for example based on morphological characteristics,52 would give different results. Nevertheless, in view of the potency of the triazole‐based smHDAC8 inhibitors on the enzyme, their further development, aimed at improving their bioavailability, is justified.
Schistosome viability testing: The resazurin‐based assay to determine the effects of novel inhibitors targeting smHDAC8 on the viability of S. mansoni schistosomula was carried out exactly as previously described.27, 62 Briefly, newly transformed schistosomula (NTS) were obtained in vitro as previously described63 by mechanical transformation of S. mansoni cercaria. A suspension of NTS was prepared at a concentration of 100 per 100 μL using Medium 199 (Invitrogen) supplemented with 10 % fetal calf serum (Gibco), penicillin (50 U×mL^−1), streptomycin (50 μg×mL^−1), and rifampicin (60 μg×mL^−1). Schistosomula were kept in culture for 3 h at 37 °C and 5 % CO2 prior to use in screening. Drug stock solutions of 20 mM in DMSO were used. Mid‐dilutions were performed in 100 % DMSO and 1 μL added to 100 μL/well of M199 medium in black 96 well plates (Nunc, UK) with supplemented Medium 199 and 100 μL of the prepared NTS suspension (100 NTS/well). Live and dead schistosomula (treated with 70 % ethanol) were used as positive and negative controls. Experiments were carried out in triplicate wells in two biological replicates and the compounds were tested at final concentrations of 10 and 20 μM. After 48 h of drug exposure, 20 μL of resazurin solution (Abd Serotec) were added to each well. Finally, after 72 h of exposure, the fluorescence intensity of the highly red fluorescent resorufin product was measured using an excitation wavelength of 530 nm and an emission wavelength of 590 nm in an Infinite M200 Pro microplate reader (TECAN). Background fluorescence of the drug containing medium were determined for each drug dilution using wells containing only DMSO as control.

Structure (SMILES) | viability at 10 µM [%]
O=C(NO)c1cn(-c2ccccc2)nn1 [Compound 2 b, N ‐Hydroxy‐1‐phenyl‐1H‐1,2,3‐triazole‐4‐carboxamide] | 92.5
O=C(NO)c1cn(-c2cc(Cl)ccc2Oc2ccc(F)cc2)nn1 [Compound 21, 1‐[5‐Chloro‐2‐(4‐fluorophenoxy)phenyl]‐N‐hydroxy‐1H‐1,2,3‐triazole‐4‐carboxamide] | 82

Tested on: not given
Assay: not given
Conditions: not given

Structure (SMILES) | melting point [°C]
O=C(NO)c1cn(Cc2ccc(C(F)(F)F)cc2)nn1 [Compound 2 e] | 192
O=C(NO)c1cn(CCc2ccccc2)nn1 [Compound 2 f] | 178
O=C(NO)c1cn(CCCc2ccccc2)nn1 [Compound 2 g] | 182

Target: T4, hsHDAC1
Assay: not given
Set-up: method as in PMID 19007204
Conditions: cited from earlier work

Structure (SMILES) | inhibition of hsHDAC1 (in words)
O=C(NO)c1cn(CCc2ccccc2)nn1 [Compound 2 f] | weakly inhibit
O=C(NO)c1cn(CCCc2ccccc2)nn1 [Compound 2 g] | weakly inhibit

Target: T2, hsHDAC8
Assay: not given
Set-up: method as in PMID 19007204
Conditions: cited from earlier work

Structure (SMILES) | inhibition of hsHDAC8 (in words)
O=C(NO)c1cn(CCc2ccccc2)nn1 [Compound 2 f] | weakly inhibit
O=C(NO)c1cn(CCCc2ccccc2)nn1 [Compound 2 g] | weakly inhibit
